One assay has as its target Protein Wnt-3a (Mus musculus, UniProt P27467). The assay is described as follows: Wnt3a-driven reporter signaling inhibition, dose response, selectivity assay for Gli-SUFU antagonist project, Wnt-LIGHT cells, luminescence (AID 651570).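 Further: Wnt-LIGHT reporter cells stimulated with conditioned medium from Wnt3a-producing cells.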 The format is functional. Conditions: read-out: IC50_Mean.
For assay [1], the target named is Ras and Rab interactor 1/Tyrosine-protein kinase ABL1 (Homo sapiens, UniProt P00519+Q13671). The format is functional.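 Further: biochemical TR-FRET dose-response test measuring inhibition of binding between Rin1 and Abl proteins.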
The next assay has as its target Cytochrome P450 2C19 (Homo sapiens, UniProt P33261). The assay is described as follows: Cytochrome panel assay with activity outcomes. Panel member name: p450-cyp2c19 Compounds with AC50 equal or less than 10 uM are considered active. The format is functional. Conditions: read-out: AC50.
Assay [2] deals with T1, Low molecular weight phosphotyrosine protein phosphatase (Homo sapiens, UniProt P24666).
T1 sequence (P24666 whole entry): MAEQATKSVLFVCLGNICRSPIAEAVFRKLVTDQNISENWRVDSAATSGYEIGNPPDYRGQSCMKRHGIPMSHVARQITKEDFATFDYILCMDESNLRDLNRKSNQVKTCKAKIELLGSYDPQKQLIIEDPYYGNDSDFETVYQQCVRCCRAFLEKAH
The format is functional. Conditions: read-out: IC50_Mean.

The target in assay [3] is T2, Carboxy-terminal domain RNA polymerase II polypeptide A small phosphatase 1 (Homo sapiens, UniProt Q9GZU7).
T2 sequence (Q9GZU7 whole entry): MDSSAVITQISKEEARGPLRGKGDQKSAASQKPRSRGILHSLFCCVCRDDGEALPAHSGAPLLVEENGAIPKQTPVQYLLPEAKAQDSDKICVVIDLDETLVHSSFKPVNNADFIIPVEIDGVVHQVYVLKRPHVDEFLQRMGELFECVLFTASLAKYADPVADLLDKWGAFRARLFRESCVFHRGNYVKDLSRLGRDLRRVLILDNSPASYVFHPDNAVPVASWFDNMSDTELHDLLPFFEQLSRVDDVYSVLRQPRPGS
The assay is described as follows: inhibitors of CTDSP1, concentration-response testing, biochemical assay, absorbance-based, actives from ultra-high-throughput screening (AID 540297). The format is functional.

Assay [4] concerns the target T3, Tyrosine-protein phosphatase non-receptor type 22 (Homo sapiens, UniProt Q9Y2R2).
T3 sequence (Q9Y2R2 whole entry): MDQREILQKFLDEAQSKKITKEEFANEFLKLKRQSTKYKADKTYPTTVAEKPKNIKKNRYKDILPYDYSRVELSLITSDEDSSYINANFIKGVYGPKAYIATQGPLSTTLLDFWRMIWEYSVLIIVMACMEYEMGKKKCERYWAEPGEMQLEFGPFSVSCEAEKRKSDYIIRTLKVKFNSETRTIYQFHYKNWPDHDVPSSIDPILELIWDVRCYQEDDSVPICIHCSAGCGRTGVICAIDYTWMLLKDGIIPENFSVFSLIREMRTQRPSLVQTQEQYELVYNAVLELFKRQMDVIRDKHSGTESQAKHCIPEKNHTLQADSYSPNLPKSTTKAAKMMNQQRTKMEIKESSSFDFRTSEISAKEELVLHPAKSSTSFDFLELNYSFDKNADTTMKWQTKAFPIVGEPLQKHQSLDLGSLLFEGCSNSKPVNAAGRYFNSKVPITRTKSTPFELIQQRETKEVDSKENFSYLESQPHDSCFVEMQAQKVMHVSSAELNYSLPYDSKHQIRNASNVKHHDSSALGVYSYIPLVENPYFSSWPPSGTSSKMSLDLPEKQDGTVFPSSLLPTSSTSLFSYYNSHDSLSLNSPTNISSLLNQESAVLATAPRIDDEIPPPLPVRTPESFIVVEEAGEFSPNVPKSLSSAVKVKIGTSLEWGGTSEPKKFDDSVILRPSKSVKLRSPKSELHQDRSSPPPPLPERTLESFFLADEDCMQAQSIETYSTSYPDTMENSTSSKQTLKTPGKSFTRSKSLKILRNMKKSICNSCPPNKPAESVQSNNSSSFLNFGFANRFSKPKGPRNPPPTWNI
In words: LYP phosphatase inhibition for selectivity, dose response, selectivity assay for LMPTP inhibitor project, biochemical, fluorescence, LYP catalytic domain (AID 652006). Format: functional. To be noted: read-out: IC50_Mean.

For assay [5], the target named is T1, Low molecular weight phosphotyrosine protein phosphatase. Format: functional. Conditions: read-out: IC50_Mean. The source holds these as a separate data set.
Another assay concerns the target Cytochrome P450 2C9 (Homo sapiens, UniProt P11712).
In assay [6] the target is T4, Mitochondrial peptide methionine sulfoxide reductase (Bos taurus, UniProt P54149).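 Further: absorbance read-out, biochemical high-throughput dose-response screen for MsrA inhibitors, confirmatory; recombinant bovine MsrA coupled to E. coli TrxB with NADPH and selenocystamine; potency is for inhibitors of MsrA activity on DMSO substrate.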
T4 sequence (P54149 whole entry): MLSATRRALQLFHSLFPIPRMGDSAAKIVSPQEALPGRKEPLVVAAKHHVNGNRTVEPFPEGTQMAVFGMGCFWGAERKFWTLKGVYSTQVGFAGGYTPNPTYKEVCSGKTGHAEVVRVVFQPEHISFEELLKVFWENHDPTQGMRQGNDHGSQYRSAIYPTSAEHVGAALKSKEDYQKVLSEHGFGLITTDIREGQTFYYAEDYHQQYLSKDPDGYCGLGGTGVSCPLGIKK
Format: functional.

In assay [7] the target is T5, ATP-dependent translocase ABCB1 (Homo sapiens, UniProt P08183). In words: ABCG2 efflux pump inhibitor potency, dose response, Ig-MXP3 cells, JC-1, flow cytometry, set 2 (AID 504566).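 Further: flow cytometry median green fluorescence of retained JC-1 dye; potency of efflux pump inhibition measured as rising substrate retention.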 Format: functional. Conditions: read-out: EC50_MICROM_.
In assay [8] the target is T5, ATP-dependent translocase ABCB1. In words: ABCB1 efflux inhibitor potency, dose response, Jurkat-DNR cells, JC-1, flow cytometry, set 2 (AID 504569).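 Further: potency of pump inhibitors that raise cellular JC-1 green fluorescence up to the nicardipine level.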 The format is functional. To be noted: read-out: EC50_MICROM_.
Assay [9] can be described thus: nonselective inhibitors of cellular cAMP signaling, dose response, counter-screen for MC4R biased antagonist project, cell-based, TR-FRET cAMP detection (AID 602305).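 Further: U2OS cells stimulated with forskolin near its EC80 as the cAMP inducer; potency is for inhibition of forskolin-stimulated cAMP signaling.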 Format: functional.
The next assay has as its target Melanocortin receptor 4 (Homo sapiens, UniProt P32245). The assay is described as follows: MC4R antagonist potency on cAMP, dose response, cell-based, TR-FRET, biased antagonists (AID 602298).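 Further: antagonist potency against agonist-stimulated cAMP production.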 The format is functional.

The source made the active and inactive calls. Bounds are passed on as bounds.

T5 sequence (P08183 whole entry): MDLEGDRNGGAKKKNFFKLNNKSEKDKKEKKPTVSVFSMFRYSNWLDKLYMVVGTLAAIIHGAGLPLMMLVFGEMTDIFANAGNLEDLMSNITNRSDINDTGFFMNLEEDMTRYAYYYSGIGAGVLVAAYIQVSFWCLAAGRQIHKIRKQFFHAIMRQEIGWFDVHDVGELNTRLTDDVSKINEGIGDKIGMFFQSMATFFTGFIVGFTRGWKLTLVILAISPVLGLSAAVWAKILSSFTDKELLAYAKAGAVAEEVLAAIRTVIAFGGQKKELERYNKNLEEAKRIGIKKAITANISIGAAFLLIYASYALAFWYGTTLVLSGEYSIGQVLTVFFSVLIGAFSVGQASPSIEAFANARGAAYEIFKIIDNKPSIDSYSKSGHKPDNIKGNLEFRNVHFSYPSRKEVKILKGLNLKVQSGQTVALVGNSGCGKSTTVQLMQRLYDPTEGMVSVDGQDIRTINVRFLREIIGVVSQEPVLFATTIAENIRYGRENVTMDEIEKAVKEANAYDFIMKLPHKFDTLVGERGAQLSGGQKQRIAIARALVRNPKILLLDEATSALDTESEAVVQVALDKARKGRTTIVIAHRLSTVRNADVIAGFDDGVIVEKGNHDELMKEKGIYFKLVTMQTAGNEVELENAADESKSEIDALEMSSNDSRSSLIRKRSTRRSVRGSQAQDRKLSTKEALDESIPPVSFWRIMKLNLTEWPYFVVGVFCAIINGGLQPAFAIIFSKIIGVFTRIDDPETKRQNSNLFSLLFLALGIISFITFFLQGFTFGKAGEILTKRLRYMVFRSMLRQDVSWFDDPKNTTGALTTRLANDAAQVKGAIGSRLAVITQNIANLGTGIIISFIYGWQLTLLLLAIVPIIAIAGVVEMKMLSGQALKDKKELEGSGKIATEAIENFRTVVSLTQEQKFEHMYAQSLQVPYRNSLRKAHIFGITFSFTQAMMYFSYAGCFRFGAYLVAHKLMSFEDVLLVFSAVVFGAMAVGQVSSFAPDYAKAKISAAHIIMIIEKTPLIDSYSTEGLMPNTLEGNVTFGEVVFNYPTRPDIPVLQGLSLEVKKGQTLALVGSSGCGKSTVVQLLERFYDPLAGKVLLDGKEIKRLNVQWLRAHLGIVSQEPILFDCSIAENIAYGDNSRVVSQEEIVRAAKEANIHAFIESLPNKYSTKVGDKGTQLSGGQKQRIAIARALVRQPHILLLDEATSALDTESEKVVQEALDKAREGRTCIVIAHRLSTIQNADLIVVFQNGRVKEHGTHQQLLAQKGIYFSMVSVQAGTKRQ
Chain of Melanocortin receptor 4 (P32245 whole entry): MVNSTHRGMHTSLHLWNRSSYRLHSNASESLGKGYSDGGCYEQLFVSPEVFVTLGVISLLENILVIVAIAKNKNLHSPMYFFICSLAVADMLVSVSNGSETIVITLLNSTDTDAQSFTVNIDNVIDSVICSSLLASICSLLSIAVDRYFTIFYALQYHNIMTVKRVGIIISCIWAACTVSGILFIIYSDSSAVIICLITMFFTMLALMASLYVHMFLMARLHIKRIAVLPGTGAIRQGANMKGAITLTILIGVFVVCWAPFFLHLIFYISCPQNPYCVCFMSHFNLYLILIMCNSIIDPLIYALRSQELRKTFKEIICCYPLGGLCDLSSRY
Chain of Protein Wnt-3a (P27467 whole entry): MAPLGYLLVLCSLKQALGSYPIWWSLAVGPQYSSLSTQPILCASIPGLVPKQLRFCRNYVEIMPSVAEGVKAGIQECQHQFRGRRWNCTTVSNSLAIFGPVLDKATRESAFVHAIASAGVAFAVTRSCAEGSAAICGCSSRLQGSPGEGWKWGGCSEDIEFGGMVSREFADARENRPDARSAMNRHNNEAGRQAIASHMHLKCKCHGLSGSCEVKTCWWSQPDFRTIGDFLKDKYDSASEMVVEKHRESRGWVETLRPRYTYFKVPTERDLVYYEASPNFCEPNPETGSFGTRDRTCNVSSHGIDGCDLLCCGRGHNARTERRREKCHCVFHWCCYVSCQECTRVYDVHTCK
Chain of Cytochrome P450 2C19 (P33261 whole entry): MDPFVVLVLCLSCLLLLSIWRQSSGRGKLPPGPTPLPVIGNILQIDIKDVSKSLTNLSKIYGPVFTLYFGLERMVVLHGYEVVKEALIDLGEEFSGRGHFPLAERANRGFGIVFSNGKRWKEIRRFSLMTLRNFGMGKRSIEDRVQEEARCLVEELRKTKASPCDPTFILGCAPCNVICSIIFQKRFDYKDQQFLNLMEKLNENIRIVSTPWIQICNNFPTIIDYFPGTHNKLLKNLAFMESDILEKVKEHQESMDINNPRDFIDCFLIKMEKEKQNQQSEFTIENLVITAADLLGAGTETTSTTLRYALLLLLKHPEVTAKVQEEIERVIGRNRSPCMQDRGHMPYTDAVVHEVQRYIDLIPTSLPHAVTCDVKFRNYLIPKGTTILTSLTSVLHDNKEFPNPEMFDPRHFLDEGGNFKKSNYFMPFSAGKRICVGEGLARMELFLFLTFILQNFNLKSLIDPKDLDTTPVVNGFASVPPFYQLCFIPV
Chain of Cytochrome P450 2C9 (P11712 whole entry): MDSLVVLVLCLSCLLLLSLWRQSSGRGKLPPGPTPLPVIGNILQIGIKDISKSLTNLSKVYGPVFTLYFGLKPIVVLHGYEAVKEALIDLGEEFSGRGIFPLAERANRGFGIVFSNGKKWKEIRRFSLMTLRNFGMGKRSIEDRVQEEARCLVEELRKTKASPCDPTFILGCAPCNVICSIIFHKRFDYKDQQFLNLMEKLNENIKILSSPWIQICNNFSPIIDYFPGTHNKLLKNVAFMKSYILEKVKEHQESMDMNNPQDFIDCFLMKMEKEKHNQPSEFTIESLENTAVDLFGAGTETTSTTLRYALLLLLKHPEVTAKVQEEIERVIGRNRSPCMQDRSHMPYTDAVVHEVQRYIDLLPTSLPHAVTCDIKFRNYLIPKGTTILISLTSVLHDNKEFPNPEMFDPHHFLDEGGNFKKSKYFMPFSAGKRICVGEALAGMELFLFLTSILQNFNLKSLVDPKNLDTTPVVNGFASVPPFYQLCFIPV
Chain of Ras and Rab interactor 1/Tyrosine-protein kinase ABL1 (P00519 whole entry): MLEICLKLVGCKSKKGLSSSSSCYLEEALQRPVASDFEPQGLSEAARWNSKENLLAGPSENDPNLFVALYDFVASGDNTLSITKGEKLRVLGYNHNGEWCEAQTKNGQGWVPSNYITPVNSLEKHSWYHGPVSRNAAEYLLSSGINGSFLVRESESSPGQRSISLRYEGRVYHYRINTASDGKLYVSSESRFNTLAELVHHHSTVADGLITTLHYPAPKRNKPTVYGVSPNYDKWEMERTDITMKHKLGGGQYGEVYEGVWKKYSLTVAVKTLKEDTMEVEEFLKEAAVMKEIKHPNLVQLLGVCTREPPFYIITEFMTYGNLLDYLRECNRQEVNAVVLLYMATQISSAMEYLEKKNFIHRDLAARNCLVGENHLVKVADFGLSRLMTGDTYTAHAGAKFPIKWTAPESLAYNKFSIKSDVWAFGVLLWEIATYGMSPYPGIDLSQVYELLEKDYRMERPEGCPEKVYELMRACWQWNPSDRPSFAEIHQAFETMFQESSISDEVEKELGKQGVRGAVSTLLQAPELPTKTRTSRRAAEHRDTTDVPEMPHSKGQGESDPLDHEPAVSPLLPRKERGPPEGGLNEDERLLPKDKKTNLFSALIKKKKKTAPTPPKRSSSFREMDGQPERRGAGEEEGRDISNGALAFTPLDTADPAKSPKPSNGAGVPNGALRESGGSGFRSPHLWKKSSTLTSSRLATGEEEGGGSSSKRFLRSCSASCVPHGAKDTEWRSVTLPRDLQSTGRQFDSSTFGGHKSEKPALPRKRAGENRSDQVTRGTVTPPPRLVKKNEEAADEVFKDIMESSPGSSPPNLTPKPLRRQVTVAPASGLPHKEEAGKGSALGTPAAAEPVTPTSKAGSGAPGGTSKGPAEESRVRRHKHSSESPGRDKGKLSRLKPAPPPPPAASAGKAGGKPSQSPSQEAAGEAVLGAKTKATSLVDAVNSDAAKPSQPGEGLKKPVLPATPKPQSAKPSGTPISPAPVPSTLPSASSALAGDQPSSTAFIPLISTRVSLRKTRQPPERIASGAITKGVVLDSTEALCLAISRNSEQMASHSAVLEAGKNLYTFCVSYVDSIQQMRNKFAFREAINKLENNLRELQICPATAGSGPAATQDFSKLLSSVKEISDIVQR
Chain of Ras and Rab interactor 1/Tyrosine-protein kinase ABL1 (Q13671 whole entry): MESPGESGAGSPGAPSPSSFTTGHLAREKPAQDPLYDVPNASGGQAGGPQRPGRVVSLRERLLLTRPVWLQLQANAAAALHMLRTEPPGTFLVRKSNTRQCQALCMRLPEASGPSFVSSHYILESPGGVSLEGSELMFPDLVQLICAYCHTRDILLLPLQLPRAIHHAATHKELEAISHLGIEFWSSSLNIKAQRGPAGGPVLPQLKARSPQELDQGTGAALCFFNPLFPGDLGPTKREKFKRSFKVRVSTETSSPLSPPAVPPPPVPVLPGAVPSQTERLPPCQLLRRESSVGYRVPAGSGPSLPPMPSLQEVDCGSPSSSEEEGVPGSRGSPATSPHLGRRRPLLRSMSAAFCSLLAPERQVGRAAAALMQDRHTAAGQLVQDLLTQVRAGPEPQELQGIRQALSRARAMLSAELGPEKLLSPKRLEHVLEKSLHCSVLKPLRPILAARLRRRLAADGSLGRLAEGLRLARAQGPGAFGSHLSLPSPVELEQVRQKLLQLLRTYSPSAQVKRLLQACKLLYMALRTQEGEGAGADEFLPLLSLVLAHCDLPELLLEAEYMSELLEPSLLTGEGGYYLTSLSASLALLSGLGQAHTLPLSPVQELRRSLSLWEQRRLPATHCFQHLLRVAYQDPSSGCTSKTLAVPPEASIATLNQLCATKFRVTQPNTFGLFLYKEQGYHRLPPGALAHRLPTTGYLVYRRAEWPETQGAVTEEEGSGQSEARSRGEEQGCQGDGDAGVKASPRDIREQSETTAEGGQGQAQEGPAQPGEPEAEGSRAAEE

In the case of `COc1ccc(NS(=O)(=O)c2ccc(N3CCN(CCO)CC3)c([N+](=O)[O-])c2)cc1`, the IC50 on Protein Wnt-3a is 0.83 µM (active).
With `Cn1c(=O)[nH]c(=O)c2c1nc(NCc1ccco1)n2Cc1ccccc1Cl`, the IC50 in assay [1] was > 73.4 µM (inactive).
In the case of `O=C(NNC(=O)c1cc2cc3ccccc3nc2s1)c1cccc(Cl)c1`, the AC50 was 5.01 µM (inconclusive) on Cytochrome P450 2C19 and 1.41 µM (inconclusive) at Cytochrome P450 2C9. Further, the IC50 is 8.67 µM (active) in assay [2], 1.9 µM (active) in assay [3], 26.8 µM (inactive) in assay [4] and 10.7 µM (active) in assay [5].
Regarding `O=C(O)c1ccc(NS(=O)(=O)c2ccc3c(c2)C(=O)c2ccccc2C3=O)cc1`, the IC50 in [6] is 91.2 µM (inactive).
Regarding `COc1ccc(-c2cc3nc(-c4ccccc4)cc(N4CCN(C(=O)c5ccccc5)CC4)n3n2)cc1`, the EC50 in assay [7] is 0.72 µM (active); in [8], 0.69 µM (active).
`COc1ccc(/C=N/Nc2cc(C)nc(NS(=O)(=O)c3ccc(C)cc3)n2)cc1`: the IC50 (in assay [9]; on Melanocortin receptor 4) was > 64.6 µM (inactive) each time.
On to `CCc1nc2ccc(C(=O)NCc3ccc4c(c3)OCO4)cn2c1N(CCC(C)C)CCN(C)C`, for which the IC50 in assay [9] is > 64.6 µM (inactive); at Melanocortin receptor 4 it was 11.5 µM (inactive).

(Values after ChEMBL document CHEMBL1201862, “PubChem BioAssay data set” (2004).)
